Measured values published in paper PMC11468213, “Ionic Liquid‐Mediated Transdermal Delivery of Thrombosis‐Detecting Nanosensors” (Advanced Healthcare Materials, 2022).

Assays:
[1] = Ex vivo skin penetration, Franz diffusion cell, porcine skin; format: in vitro ADME; conditions: 300 µL, 37 °C, 24 h
Description: Porcine skin samples were placed on Franz diffusion cells, and the diffusion of TDN‐qFAM nanoparticles was tested with different concentrations of CAGE present in the formulation.
Figure 5 A) Confocal microscopy image of a paraffin‐embedded porcine skin section after 24 h of topical administration of TDN‐qFAM in 100% CAGE. Left: bright field; right: fluorescence image. Scale bar: 200 µm. B) Quantitative results of nanoparticles found in ex vivo porcine skin layers using Franz diffusion cell set‐up with different CAGE concentrations. (mean ± s.d., n = 3 independent skin slices).
The skin penetration studies were undertaken using porcine skin in Franz diffusion cells, as described previously in full.^[ [23] ^] Briefly, thawed porcine skin (CBSET, Lexington MA) or mouse skin removed from Swiss Webster strain was placed in a diffusion cell with the stratum corneum facing upwards. The acceptor component of the cell was filled with PBS and equipped with a magnetic stirrer bar. 300 µL was placed on top of the skin, ensuring full coverage. The diffusion cell was placed on a stirrer plate at 37 °C for 24 h, at which point the skin was removed and the surface washed gently with PBS. For quantitative analysis, the stratum corneum was removed by tape stripping (ten layers), the epidermis was separated from the dermis with a scalpel, and a 4 mm punch was used thrice to remove a third of the dermis (by area). The tissue was then placed into a 50% methanol/PBS mixture, and left to shake overnight at RT to extract the drug. 100 µL of the extracted fluid was then placed into a black Corning 96‐well plate and analyzed using a i3 SpectraMax plate reader, with excitation wavelength of 750 nm and an emission wavelength of 775 nm. For the confocal microscopy, the skin was affixed to a cryostat stage with fixing compound and 20 µm slices were taken using a cryostat (Leica CM1950, Leica, Germany). The slices of skin were placed on negatively charged slides (Fisher Scientific, Pittsburgh, PA, USA) and imaged using a confocal microscope (Upright Zeiss LSM 710 NLO) with a 10× air objective.

[2] = biological target: recombinant thrombin (Homo sapiens, UniProt P00734); assay: Fluorescence dequenching cleavage assay with recombinant thrombin; format: biochemical; conditions: fluorescence at 535 nm, triplicate
Description: To assess the solubility, stability, and activity of our nanosensors in CAGE, we conjugated a thrombin substrate (–GGfPRSGGG–) to 40 kDa PEG nanoparticles at an 8:1 substrate:nanoparticle ratio. The substrates were flanked by 5‐carboxyfluorescein (5‐FAM) and a Förster resonance energy transfer quencher molecule (CPQ2) in close proximity, such that proteolytic cleavage would result in fluorescence signal (nanoparticle was denoted as TDN‐qFAM, Figure 1A). […] In addition, the colloidal stability of TDN‐qFAM was assessed by the absorption spectrum of TDN‐qFAM in the presence and absence of CAGE after 24 h of room temperature storage (Figure 1C). […] We then investigated whether the presence of CAGE components influenced the stability of the peptide substrate and the activity of thrombin against TDN‐qFAM. […] However, upon stepwise dilution of CAGE with phosphate buffered saline (PBS), the functionality of TDN‐qFAM against thrombin cleavage was improved.
Figure 1 A) Chemical components of CAGE ionic liquid and schematic representation of TDN‐qFAM nanoparticles with thrombin substrate sequence. B) Dynamic light scattering and C) absorbance spectra of TDN‐qFAM in PBS and CAGE solutions. […]) Fluorescence dequenching experiment for enzyme cleavage kinetics in the presence (empty circles) and absence (full circles) of recombinant thrombin in the TDN‐qFAM/CAGE solution. […]

[3] = Dynamic light scattering size analysis of nanosensors in CAGE; format: physicochemical
Description: (§1) To assess the solubility, stability, and activity of our nanosensors in CAGE, we conjugated a thrombin substrate (–GGfPRSGGG–) to 40 kDa PEG nanoparticles at an 8:1 substrate:nanoparticle ratio. The substrates were flanked by 5‐carboxyfluorescein (5‐FAM) and a Förster resonance energy transfer quencher molecule (CPQ2) in close proximity, such that proteolytic cleavage would result in fluorescence signal (nanoparticle was denoted as TDN‐qFAM, Figure 1A). […] In addition, the colloidal stability of TDN‐qFAM was assessed by the absorption spectrum of TDN‐qFAM in the presence and absence of CAGE after 24 h of room temperature storage (Figure 1C). […]
(§2) The CAGE and TDNs coformulation was prepared by addition of 1 mL of CAGE onto 1 mg of conjugated PEG powder, followed by iterative short mixing and ultrasonication steps until a clear solution was observed. […] Size analysis was performed in dynamic light scattering (ZetaSizer), and absorbance spectra were obtained in Tecan Spectrophotometer. For in vitro cleavage assays, recombinant thrombin (10 × 10^−9 M working concentration) was mixed with TDN‐Q in CAGE (30%) solution (10 × 10^−6 M by peptide), and cleavage was monitored by fluorescence at 535 nm of dequenched 5‐carboxyfluorescein (5‐FAM). […]

[4] = biological target: T1, endogenous thrombin (Mus musculus, UniProt P19221); assay: Cleavage kinetics in mouse serum at different CAGE concentrations; format: biochemical; conditions: 37 °C, fluorescence
T1 construct: The cleavage study was carried out in mouse serum obtained from Sigma Aldrich; tissue Sigma Aldrich; host or cells: mouse serum

[5] = Colloidal stability by absorption spectrum after storage; format: physicochemical; conditions: presence and absence of CAGE; 24 h room temperature storage; absorbance spectrum
Description: as §1, §2

[6] = Ex vivo skin penetration, Franz diffusion cell, mouse skin; format: in vitro ADME, mouse (Swiss Webster); conditions: 37 °C, 24 h, fluorescence, n = 3 skin samples
Description: Next, we validated the skin penetration of the nanosensors by coformulating unquenched, 5‐FAM labelled, thrombin substrate‐conjugated PEG nanoparticles (TDN‐FAM, Table S1, Supporting Information) and 30% CAGE solution. Ex vivo conditions were established by incubating TDN‐FAM/CAGE with mouse skin samples that were stabilized in a Franz diffusion cell set‐up.^[ [14], [15] ^] Three main layers of skin samples, namely stratum corneum, viable epidermis, and dermis, as well as the PBS solution underneath the skin (acceptor solution), were collected, and nanosensor concentration was quantified via fluorescence spectroscopy.
Figure 2 A) Quantification of TDN‐FAM extracted from different layers of mouse skin via fluorescence readout. SC: Stratum Corneum. […]
The skin penetration studies were undertaken using porcine skin in Franz diffusion cells, as described previously in full.^[ [23] ^] […] For quantitative analysis, the stratum corneum was removed by tape stripping (ten layers), the epidermis was separated from the dermis with a scalpel, and a 4 mm punch was used thrice to remove a third of the dermis (by area). […] 100 µL of the extracted fluid was then placed into a black Corning 96‐well plate and analyzed using a i3 SpectraMax plate reader, with excitation wavelength of 750 nm and an emission wavelength of 775 nm. […]

[7] = test system: acute pulmonary embolism mouse model; assay: Urinary reporter detection of thrombosis in thromboplastin-injected acute pulmonary embolism mouse model; format: in vivo, Swiss Webster mice; conditions: for ROC AUC: n = 5 per group
Description: Next, we sought to assess whether transdermally delivered nanosensors could detect disease in this model. Thrombin substrate flanked by near‐IR dye, Cy7, was conjugated to PEG nanoparticles (TDN‐Cy7), were solvated in 30% CAGE and administered topically to Swiss Webster mice. The TDN‐Cy7 nanoparticles were designed such that cleavage of the thrombin substrate would liberate a renally clearable fragment with Cy7 that could enable quantification in the urine by fluorescence. Concomitant quantification of plasma‐borne TDN‐Cy7 was performed to normalize the urine signal in order to mitigate the mouse‐to‐mouse variation that may arise due to the heterogeneous skin conditions present across individual subjects. Thromboplastin was intravenously administered to mice at different time points after topical administration of CAGE/TDN solution on the dorsal skin. Urine collection was performed 30 min after thromboplastin injection, and fluorescence measurement was carried out to detect reporter peptides in the urine. […] These finding indicate that topical administration with CAGE achieves circulatory delivery of nanosensors that enable sustained, noninvasive monitoring of thromboembolism in vivo as opposed to bolus injection into the blood.
Figure 4 A) Urinary reporter concentrations relative to plasma TDN‐Cy7 concentrations for thromboplastin‐injected (Thrombosis) and healthy control mice at different time points after nanosensor administration (mean ± s.d., n = 5 mice per group; *P < 0.05 and **P < 0.01, two‐tailed Mann–Whitney's […]). […] C) Urinary reporter concentrations in healthy versus thrombosis mice 6 h after intravenous injection of TDN‐Cy7 (mean ± s.d., n = 5 mice per group; ns: not significant). D) ROC curve calculated from data at panel (C) (AUC = 0.60).
For urine detection of thrombosis, 10 µL of CAGE (30%) containing TDN‐Cy7 nanosensor (4nmoles by peptide) was administered onto previously shaved dorsal skin of Swiss Webster mice, which were subsequently returned to their cages. At different time points postadministration, thromboplastin (0.75 µL g^−1 bodyweight of 4 mg mL^−1 stock in PBS) was injected intravenously, and both urine and blood (retroorbital draw) were collected 30 min p.i. Plasma is collected similar to the pharmacokinetic study and both urine and plasma were stored at −80 °C. Cleaved peptide reporters in the urine was quantified with fluorescence of Cy7 (Excitation 750 nm, emission 790 nm). Plasma levels of TDN‐Cy7 were similarly quantified using fluorescence and used for normalizing the urine signals.

5FAM-GGfPRSGGGK(CPQ2)-(EG)2-C-[8armPEG] [TDN‐qFAM, Quenched thrombosis detecting nanosensors: 5-FAM/CPQ2-flanked thrombin substrate peptide conjugated to 40 kDa 8-arm PEG nanoparticles]
penetration into porcine skin ([1]; 30% CAGE, fluorescence, n = 3 skin slices): slight increase in penetration | amount transported into porcine skin ([1]; in PBS, acceptor PBS, fluorescence): negligible amount | penetration through porcine skin ([1]; undiluted (100%) CAGE, fluorescence and confocal microscopy, n = 3 skin slices): dramatically improved penetration | cleavage in the absence of recombinant enzyme ([2]; 30% CAGE alone, no thrombin): no cleavage was observed | cleavage (fluorescence dequenching) with recombinant thrombin ([2]; 30% CAGE, thrombin 10 × 10^-9 M, nanosensor 10 × 10^-6 M by peptide): clear cleavage profile with gradual increase in fluorescence intensity | aggregation associated size increase (>100 nm), dynamic light scattering ([3]; 30% CAGE solution vs PBS, ZetaSizer): did not exhibit any significant aggregation associated size increase | mean hydrodynamic size when dissolved in CAGE ([3]; CAGE vs PBS, dynamic light scattering): slight increase | endogenous thrombin activity against nanosensor in mouse serum ([4]; 30% CAGE, n = 3 measurements): partially hindered | functionality against thrombin cleavage in mouse serum on dilution of CAGE ([4]; stepwise dilution of CAGE with PBS (5%, 1%, 0.1%, 0%), n = 3): improved | absorption maximum at 495 nm (5-FAM) after storage [5]: virtually unchanged

5FAM-GGfPRSGGGK-(EG)2-C-[8armPEG] [TDN‐FAM, Unquenched 5-carboxyfluorescein conjugated thrombosis detecting nanosensors on 8-arm PEG]
signal in dermis layer and acceptor solution ([6]; 30% CAGE vs PBS, 300 µL, acceptor PBS): markedly increased signal | recovery from dermis and acceptor layers ([6]; 50% CAGE vs 30% CAGE): even higher recovery

Cy7-GGfPRSGGGK-(EG)2-C-[8armPEG] [TDN‐Cy7, Unquenched Cy7 conjugated thrombosis detecting nanosensors on 8-arm PEG]
ROC AUC ([7]; 6 h after intravenous injection): 0.60 | amount of reporter in urine vs healthy background ([7]; intravenous injection 6 h before thromboplastin, n = 5): not significantly different from healthy background | urinary reporter signal, diseased vs healthy mice ([7]; topical 30% CAGE, 4 nmoles by peptide, thromboplastin 6 h after administration, urine 30 min later, normalised to plasma, n = 5, P = 0.0079): significantly increased | ROC AUC ([7]; topical 30% CAGE, 6 h after nanosensor administration): 1.00 | ROC AUC ([7]; topical 30% CAGE, 12 h after nanosensor administration): 1.00 | ROC AUC ([7]; topical 30% CAGE, 24 h after nanosensor administration): 0.96 | ROC AUC ([7]; topical 30% CAGE, 48 h after nanosensor administration): 0.84 | ROC AUC ([7]; topical 30% CAGE, 72 h after nanosensor administration): 0.72 | diagnostic power of urinary reporter ([7]; topical 30% CAGE, thrombosis induced at 12 h, n = 5): retained their diagnostic power | diagnostic power of urinary reporter ([7]; topical 30% CAGE, thrombosis induced at 24 hours, n = 5): retained their diagnostic power | discrimination of diseased from healthy mice ([7]; topical 30% CAGE, thrombosis induced at 48 hours, n = 5): could not discriminate diseased from healthy mice | discrimination of diseased from healthy mice ([7]; topical 30% CAGE, thrombosis induced at 72 hours, n = 5): could not discriminate diseased from healthy mice
